Results taken from ChEMBL document CHEMBL1909046, “DrugMatrix in vitro pharmacology data”.

Target: 5-hydroxytryptamine receptor 1B (Rattus norvegicus, UniProt P28564); further: in other assays of this panel Not Active means under 50% inhibition at 10 µM
Assay type: cell membranes, Wistar, Cerebral cortex, Membrane
Details: not given

5-hydroxytryptamine receptor 1B, sequence (P28564 whole entry): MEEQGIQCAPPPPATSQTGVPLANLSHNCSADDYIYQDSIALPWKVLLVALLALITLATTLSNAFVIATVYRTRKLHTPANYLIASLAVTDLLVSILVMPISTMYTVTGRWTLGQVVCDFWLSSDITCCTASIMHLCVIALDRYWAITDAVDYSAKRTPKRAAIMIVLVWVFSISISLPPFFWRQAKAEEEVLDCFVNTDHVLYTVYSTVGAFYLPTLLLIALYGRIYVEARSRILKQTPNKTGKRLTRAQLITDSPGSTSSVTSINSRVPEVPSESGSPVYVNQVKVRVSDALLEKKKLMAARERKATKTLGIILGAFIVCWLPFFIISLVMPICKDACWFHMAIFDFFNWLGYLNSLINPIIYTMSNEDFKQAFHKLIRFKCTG

SMILES | IC50
COc1cc2c3cc1Oc1cc(ccc1O)C[C@@H]1c4c(cc(OC)c(O)c4Oc4ccc(cc4)C[C@@H]3N(C)CC2)CC[N+]1(C)C.[Cl-] | Not Active
CN(Cc1ccc(C(C)(C)C)cc1)Cc1cccc2ccccc12 [BUTENAFINE] | Not Active
Sc1ncnc2nc[nH]c12 [MERCAPTOPURINE ANHYDROUS] | Not Active
CC(C)(C)NCC(O)c1cc(Cl)c(N)c(Cl)c1 (stereo not drawn) [CLENBUTEROL] | Not Active
Nc1nc2c(ncn2COCCO)c(=O)[nH]1 [ACYCLOVIR] | Not Active
c1ccc2c(c1)c1cccc3ccc4cccc2c4c31 [BENZO[E]PYRENE] | Not Active
O=C(O)CCCc1ccc(N(CCCl)CCCl)cc1 [CHLORAMBUCIL] | Not Active
Cc1ccc(N(CC2=NCCN2)c2cccc(O)c2)cc1 [PHENTOLAMINE] | Not Active
CC(C)(Oc1ccc(Cl)cc1)C(=O)O [CLOFIBRIC ACID] | Not Active
CC1(C)O[C@@H]2C[C@H]3[C@@H]4CCC5=CC(=O)CC[C@]5(C)[C@@]4(F)[C@@H](O)C[C@]3(C)[C@]2(C(=O)CCl)O1 [HALCINONIDE] | Not Active
NC(=O)N1c2ccccc2CCc2ccccc21 | Not Active

Target: T1, Progesterone receptor (Bos taurus, UniProt Q690N0)
T1 sequence (Q690N0 whole entry): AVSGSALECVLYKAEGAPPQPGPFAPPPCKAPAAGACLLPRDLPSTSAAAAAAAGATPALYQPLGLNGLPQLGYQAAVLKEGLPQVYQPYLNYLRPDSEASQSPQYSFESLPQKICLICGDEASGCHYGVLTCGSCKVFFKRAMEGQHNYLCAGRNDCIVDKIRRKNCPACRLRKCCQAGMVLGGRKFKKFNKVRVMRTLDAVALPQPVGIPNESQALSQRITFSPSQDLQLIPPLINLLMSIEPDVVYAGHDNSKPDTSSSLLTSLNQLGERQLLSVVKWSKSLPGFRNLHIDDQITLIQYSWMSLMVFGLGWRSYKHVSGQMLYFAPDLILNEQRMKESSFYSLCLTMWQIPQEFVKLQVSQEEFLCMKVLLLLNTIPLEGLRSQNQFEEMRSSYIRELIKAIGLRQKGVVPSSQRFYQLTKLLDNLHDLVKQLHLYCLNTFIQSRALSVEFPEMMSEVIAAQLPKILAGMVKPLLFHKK
Test: DRUGMATRIX: Progesterone radioligand binding (ligand: [3H] R-5020)
Assay type: tissue-based, Uterus
Details: Not Active = under 50% inhibition at 10 µM

SMILES | IC50
COc1cc2c3cc1Oc1cc(ccc1O)C[C@@H]1c4c(cc(OC)c(O)c4Oc4ccc(cc4)C[C@@H]3N(C)CC2)CC[N+]1(C)C.[Cl-] | Not Active
CN(Cc1ccc(C(C)(C)C)cc1)Cc1cccc2ccccc12 [BUTENAFINE] | Not Active
Sc1ncnc2nc[nH]c12 [MERCAPTOPURINE ANHYDROUS] | Not Active
CC(C)(C)NCC(O)c1cc(Cl)c(N)c(Cl)c1 (stereo not drawn) [CLENBUTEROL] | Not Active
Nc1nc2c(ncn2COCCO)c(=O)[nH]1 [ACYCLOVIR] | Not Active
c1ccc2c(c1)c1cccc3ccc4cccc2c4c31 [BENZO[E]PYRENE] | Not Active
O=C(O)CCCc1ccc(N(CCCl)CCCl)cc1 [CHLORAMBUCIL] | Not Active
Cc1ccc(N(CC2=NCCN2)c2cccc(O)c2)cc1 [PHENTOLAMINE] | Not Active
CC(C)(Oc1ccc(Cl)cc1)C(=O)O [CLOFIBRIC ACID] | Not Active
NC(=O)N1c2ccccc2CCc2ccccc21 | Not Active

Same assay, conditions: Not Active = under 50% inhibition at 10 µM; read-out: IC50

SMILES | IC50 [nM]
CC1(C)O[C@@H]2C[C@H]3[C@@H]4CCC5=CC(=O)CC[C@]5(C)[C@@]4(F)[C@@H](O)C[C@]3(C)[C@]2(C(=O)CCl)O1 [HALCINONIDE] | 0.93

Same assay, conditions: Not Active = under 50% inhibition at 10 µM; read-out: Ki

SMILES | Ki [nM]
CC1(C)O[C@@H]2C[C@H]3[C@@H]4CCC5=CC(=O)CC[C@]5(C)[C@@]4(F)[C@@H](O)C[C@]3(C)[C@]2(C(=O)CCl)O1 [HALCINONIDE] | 0.121

Target: Melanocortin receptor 3 (Homo sapiens, UniProt P41968); further: in other assays of this panel Not Active means under 50% inhibition at 10 µM
Assay type: cell membranes, HEK293, Membrane
Details: hek293

Melanocortin receptor 3, sequence (P41968 whole entry): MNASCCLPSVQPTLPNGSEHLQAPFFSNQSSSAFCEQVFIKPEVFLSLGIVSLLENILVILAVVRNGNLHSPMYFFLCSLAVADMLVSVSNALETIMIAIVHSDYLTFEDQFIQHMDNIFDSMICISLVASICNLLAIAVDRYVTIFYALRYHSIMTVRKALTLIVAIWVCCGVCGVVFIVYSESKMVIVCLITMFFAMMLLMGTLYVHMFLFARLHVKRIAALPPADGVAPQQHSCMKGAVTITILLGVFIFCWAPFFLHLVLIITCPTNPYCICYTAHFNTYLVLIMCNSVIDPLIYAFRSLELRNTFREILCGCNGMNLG

SMILES | IC50
COc1cc2c3cc1Oc1cc(ccc1O)C[C@@H]1c4c(cc(OC)c(O)c4Oc4ccc(cc4)C[C@@H]3N(C)CC2)CC[N+]1(C)C.[Cl-] | Not Active
CN(Cc1ccc(C(C)(C)C)cc1)Cc1cccc2ccccc12 [BUTENAFINE] | Not Active
Sc1ncnc2nc[nH]c12 [MERCAPTOPURINE ANHYDROUS] | Not Active
CC(C)(C)NCC(O)c1cc(Cl)c(N)c(Cl)c1 (stereo not drawn) [CLENBUTEROL] | Not Active
Nc1nc2c(ncn2COCCO)c(=O)[nH]1 [ACYCLOVIR] | Not Active
c1ccc2c(c1)c1cccc3ccc4cccc2c4c31 [BENZO[E]PYRENE] | Not Active
O=C(O)CCCc1ccc(N(CCCl)CCCl)cc1 [CHLORAMBUCIL] | Not Active
Cc1ccc(N(CC2=NCCN2)c2cccc(O)c2)cc1 [PHENTOLAMINE] | Not Active
CC(C)(Oc1ccc(Cl)cc1)C(=O)O [CLOFIBRIC ACID] | Not Active
CC1(C)O[C@@H]2C[C@H]3[C@@H]4CCC5=CC(=O)CC[C@]5(C)[C@@]4(F)[C@@H](O)C[C@]3(C)[C@]2(C(=O)CCl)O1 [HALCINONIDE] | Not Active
NC(=O)N1c2ccccc2CCc2ccccc21 | Not Active

Target: T2, Type-2 angiotensin II receptor (Homo sapiens, UniProt P50052); further: in other assays of this panel Not Active means under 50% inhibition at 10 µM
T2 sequence (P50052 whole entry): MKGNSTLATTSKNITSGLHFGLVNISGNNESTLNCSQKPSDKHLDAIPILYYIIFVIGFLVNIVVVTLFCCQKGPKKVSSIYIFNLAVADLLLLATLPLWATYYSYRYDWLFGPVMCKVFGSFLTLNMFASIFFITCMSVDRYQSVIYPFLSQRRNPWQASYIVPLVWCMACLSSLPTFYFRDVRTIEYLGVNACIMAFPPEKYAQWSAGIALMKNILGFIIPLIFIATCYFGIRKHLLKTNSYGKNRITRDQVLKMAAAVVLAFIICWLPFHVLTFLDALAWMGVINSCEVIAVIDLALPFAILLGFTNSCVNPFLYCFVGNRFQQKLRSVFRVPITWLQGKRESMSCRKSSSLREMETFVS
Assay type: cell-based
Details: cho-k1

SMILES | IC50
COc1cc2c3cc1Oc1cc(ccc1O)C[C@@H]1c4c(cc(OC)c(O)c4Oc4ccc(cc4)C[C@@H]3N(C)CC2)CC[N+]1(C)C.[Cl-] | Not Active
CN(Cc1ccc(C(C)(C)C)cc1)Cc1cccc2ccccc12 [BUTENAFINE] | Not Active
Sc1ncnc2nc[nH]c12 [MERCAPTOPURINE ANHYDROUS] | Not Active
CC(C)(C)NCC(O)c1cc(Cl)c(N)c(Cl)c1 (stereo not drawn) [CLENBUTEROL] | Not Active
Nc1nc2c(ncn2COCCO)c(=O)[nH]1 [ACYCLOVIR] | Not Active
c1ccc2c(c1)c1cccc3ccc4cccc2c4c31 [BENZO[E]PYRENE] | Not Active
O=C(O)CCCc1ccc(N(CCCl)CCCl)cc1 [CHLORAMBUCIL] | Not Active
Cc1ccc(N(CC2=NCCN2)c2cccc(O)c2)cc1 [PHENTOLAMINE] | Not Active
CC(C)(Oc1ccc(Cl)cc1)C(=O)O [CLOFIBRIC ACID] | Not Active
CC1(C)O[C@@H]2C[C@H]3[C@@H]4CCC5=CC(=O)CC[C@]5(C)[C@@]4(F)[C@@H](O)C[C@]3(C)[C@]2(C(=O)CCl)O1 [HALCINONIDE] | Not Active
NC(=O)N1c2ccccc2CCc2ccccc21 | Not Active

Target: Epidermal growth factor receptor (Homo sapiens, UniProt P00533)
Test: DRUGMATRIX: Protein Tyrosine Kinase, EGF Receptor enzyme inhibition (substrate: Poly(Glu:Tyr))
Assay type: cell-based, Insect cells
Details: insect cells; Not Active = under 50% inhibition at 10 µM

Epidermal growth factor receptor, sequence (P00533 whole entry): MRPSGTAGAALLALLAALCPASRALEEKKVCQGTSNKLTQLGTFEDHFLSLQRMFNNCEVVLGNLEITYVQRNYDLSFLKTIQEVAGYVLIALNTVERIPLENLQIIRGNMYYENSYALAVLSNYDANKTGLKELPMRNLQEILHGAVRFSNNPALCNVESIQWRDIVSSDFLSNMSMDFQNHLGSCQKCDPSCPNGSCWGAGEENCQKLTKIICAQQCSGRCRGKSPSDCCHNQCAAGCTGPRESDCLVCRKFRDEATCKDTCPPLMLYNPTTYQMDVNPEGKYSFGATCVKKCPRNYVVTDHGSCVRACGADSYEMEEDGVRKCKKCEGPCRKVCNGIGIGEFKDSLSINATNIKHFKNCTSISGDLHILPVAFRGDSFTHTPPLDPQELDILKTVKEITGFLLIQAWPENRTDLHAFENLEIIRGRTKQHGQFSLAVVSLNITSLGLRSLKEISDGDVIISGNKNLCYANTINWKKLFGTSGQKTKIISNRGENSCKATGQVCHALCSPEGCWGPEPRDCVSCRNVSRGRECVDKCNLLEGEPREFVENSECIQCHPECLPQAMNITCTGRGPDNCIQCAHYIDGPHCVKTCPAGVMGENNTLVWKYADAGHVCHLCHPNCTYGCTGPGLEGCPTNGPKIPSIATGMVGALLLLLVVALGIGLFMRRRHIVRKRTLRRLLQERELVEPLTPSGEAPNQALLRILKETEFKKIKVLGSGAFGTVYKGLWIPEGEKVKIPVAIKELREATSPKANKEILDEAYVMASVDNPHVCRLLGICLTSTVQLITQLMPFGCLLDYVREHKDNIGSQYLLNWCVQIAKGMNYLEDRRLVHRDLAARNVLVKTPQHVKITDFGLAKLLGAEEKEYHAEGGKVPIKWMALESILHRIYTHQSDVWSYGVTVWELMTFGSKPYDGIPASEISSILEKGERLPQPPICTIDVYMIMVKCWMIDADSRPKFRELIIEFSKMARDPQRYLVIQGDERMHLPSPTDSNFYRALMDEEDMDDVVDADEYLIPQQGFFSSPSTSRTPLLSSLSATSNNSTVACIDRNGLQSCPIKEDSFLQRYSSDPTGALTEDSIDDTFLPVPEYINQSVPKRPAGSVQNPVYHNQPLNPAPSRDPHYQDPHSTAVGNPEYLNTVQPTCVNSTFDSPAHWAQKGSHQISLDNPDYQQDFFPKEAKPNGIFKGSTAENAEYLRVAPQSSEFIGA

SMILES | IC50
COc1cc2c3cc1Oc1cc(ccc1O)C[C@@H]1c4c(cc(OC)c(O)c4Oc4ccc(cc4)C[C@@H]3N(C)CC2)CC[N+]1(C)C.[Cl-] | Not Active
CN(Cc1ccc(C(C)(C)C)cc1)Cc1cccc2ccccc12 [BUTENAFINE] | Not Active
Sc1ncnc2nc[nH]c12 [MERCAPTOPURINE ANHYDROUS] | Not Active
CC(C)(C)NCC(O)c1cc(Cl)c(N)c(Cl)c1 (stereo not drawn) [CLENBUTEROL] | Not Active
Nc1nc2c(ncn2COCCO)c(=O)[nH]1 [ACYCLOVIR] | Not Active
c1ccc2c(c1)c1cccc3ccc4cccc2c4c31 [BENZO[E]PYRENE] | Not Active
O=C(O)CCCc1ccc(N(CCCl)CCCl)cc1 [CHLORAMBUCIL] | Not Active
Cc1ccc(N(CC2=NCCN2)c2cccc(O)c2)cc1 [PHENTOLAMINE] | Not Active
CC(C)(Oc1ccc(Cl)cc1)C(=O)O [CLOFIBRIC ACID] | Not Active
CC1(C)O[C@@H]2C[C@H]3[C@@H]4CCC5=CC(=O)CC[C@]5(C)[C@@]4(F)[C@@H](O)C[C@]3(C)[C@]2(C(=O)CCl)O1 [HALCINONIDE] | Not Active
NC(=O)N1c2ccccc2CCc2ccccc21 | Not Active

Tested on: not listed separately
Test: DRUGMATRIX: Calcium Channel Type L, Phenylalkylamine radioligand binding (ligand: [3H] (-)-Desmethoxyverapamil (D-888))
Assay type: cell membranes, Rattus norvegicus, Wistar, Brain, Membrane
Details: Not Active = under 50% inhibition at 10 µM

SMILES | IC50 | Ki
COc1cc2c3cc1Oc1cc(ccc1O)C[C@@H]1c4c(cc(OC)c(O)c4Oc4ccc(cc4)C[C@@H]3N(C)CC2)CC[N+]1(C)C.[Cl-] | Not Active | Not Active
CN(Cc1ccc(C(C)(C)C)cc1)Cc1cccc2ccccc12 [BUTENAFINE] | Not Active | Not Active
Sc1ncnc2nc[nH]c12 [MERCAPTOPURINE ANHYDROUS] | Not Active | Not Active
CC(C)(C)NCC(O)c1cc(Cl)c(N)c(Cl)c1 (stereo not drawn) [CLENBUTEROL] | Not Active | Not Active
Nc1nc2c(ncn2COCCO)c(=O)[nH]1 [ACYCLOVIR] | Not Active | Not Active
c1ccc2c(c1)c1cccc3ccc4cccc2c4c31 [BENZO[E]PYRENE] | Not Active | Not Active
O=C(O)CCCc1ccc(N(CCCl)CCCl)cc1 [CHLORAMBUCIL] | Not Active | Not Active
CC(C)(Oc1ccc(Cl)cc1)C(=O)O [CLOFIBRIC ACID] | Not Active | Not Active
CC1(C)O[C@@H]2C[C@H]3[C@@H]4CCC5=CC(=O)CC[C@]5(C)[C@@]4(F)[C@@H](O)C[C@]3(C)[C@]2(C(=O)CCl)O1 [HALCINONIDE] | Not Active | Not Active
NC(=O)N1c2ccccc2CCc2ccccc21 | Not Active | Not Active

Same assay, conditions: Not Active = under 50% inhibition at 10 µM; read-out: IC50

SMILES | IC50 [nM]
Cc1ccc(N(CC2=NCCN2)c2cccc(O)c2)cc1 [PHENTOLAMINE] | 746

Same assay, conditions: Not Active = under 50% inhibition at 10 µM; read-out: Ki

SMILES | Ki [nM]
Cc1ccc(N(CC2=NCCN2)c2cccc(O)c2)cc1 [PHENTOLAMINE] | 725
